This note sets out measurements from US20240002395A1, “COMPOUNDS AND THEIR USE FOR TREATING NEUROPATHIC PAIN” (The Johns Hopkins University, priority 2020, published 2024).

In data set [1] the target is T1, human MrgprX1 (Homo sapiens, UniProt Q96LB2).
T1 construct: expressed in transfected cells
Kind of data set: MrgprX1 positive allosteric modulator (PAM) calcium FLIPR assay in HEK293 cells. It is filed as cell-based. The settings on record: PAM activity in presence of EC20 concentration of BAM8-22; HEK293 cells stably transfected with human MrgprX1. The procedure:
HEK293 cells stably transfected with human MrgprX1 were plated onto poly-D-lysine-coated, black-walled, 96-well plates at a seeding density of 12,000 cells/well and grown for two days. On the day of the experiment, cells were incubated with Fluo-4 AM 2 μM, pluronic acid 0.04% and Trypan Red 1% in HBSS (pH 7.4, 100 μL) for 1 h at 37° C. For each different passage of cells, a BAM8-22 dose response was first conducted and the BAM8-22 EC20 determined. Test compounds were then dissolved and serially diluted in DMSO, further diluted with Trypan Red (1%)-containing HBSS (50 μL) and added to cells (0.33% DMSO concentration by volume) to first monitor for agonist activity. After 2.5 min, BAM8-22 at 4-fold EC20 (50 μL) was added to cells (0.25% DMSO concentration by volume) and the cells imaged on the FLIPR for an additional 2 minutes to monitor the test compounds for PAM activity. Finally, data were normalized to fluorescence signals obtained from 250 nM of BAM8-22 (maximum) and BAM8-22 at its EC20 concentration (minimum). EC50 of a test compound was defined as the concentration required to provoke a response halfway between the minimum and maximum response in the presence of EC20 concentration of BAM8-22.

pEC50: −log10 of the molar value. Bounds are passed on as bounds.

T1 sequence (Q96LB2 whole entry): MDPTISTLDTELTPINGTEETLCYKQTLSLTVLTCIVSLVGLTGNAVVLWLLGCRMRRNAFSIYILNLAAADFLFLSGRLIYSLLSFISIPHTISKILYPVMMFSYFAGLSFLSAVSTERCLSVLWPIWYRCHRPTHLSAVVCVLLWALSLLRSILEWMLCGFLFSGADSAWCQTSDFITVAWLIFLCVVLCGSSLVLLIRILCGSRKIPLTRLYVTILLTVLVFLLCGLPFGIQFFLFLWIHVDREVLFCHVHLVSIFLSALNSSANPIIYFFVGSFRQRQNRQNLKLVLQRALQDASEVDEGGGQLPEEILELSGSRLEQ

What is called pEC50 is −log10 of the EC50, conventionally taken in molar units. One may read the melting point as the temperature, or range, at which the solid turns liquid. `CC(C)(C)c1sc2ncnc(Oc3c(F)cccc3F)c2c1-c1cccc(Cl)c1` [Compound 7as, 6-tert-butyl-5-(3-chlorophenyl)-4-(2,6-difluorophenoxy)thieno[2,3-d]pyrimidine]: the melting point turned out to be 146 °C. The pEC50 in data set [1] was 7.30.
For the compound `CC(C)(C)c1sc2ncnc(Oc3c(F)cccc3F)c2c1-c1ccc(F)cc1` [Compound 7at, 6-tert-butyl-4-(2,6-difluorophenoxy)-5-(4-fluorophenyl)thieno[2,3-d]pyrimidine], the melting point came out at 186 °C. In data set [1], the pEC50 is 7.15.
The matching figures for `CC(C)(C)c1sc2ncnc(Oc3ccccc3F)c2c1-c1ccc(F)cc1` [Compound 7au, 6-tert-butyl-4-(2-fluorophenoxy)-5-(4-fluorophenyl)thieno[2,3-d]pyrimidine]: 194 °C and 6.52.
`CC(C)(C)c1sc2ncnc(Oc3ccccc3OC(F)(F)F)c2c1-c1cccc(F)c1` [Compound 7av, 6-tert-butyl-5-(3-fluorophenyl)-4-(2-(trifluoromethoxy)phenoxy)thieno[2,3-d]pyrimidine] yielded a melting point of 150 °C. In data set [1], the pEC50 was 7.00.
On the same counts, the results for `CC(C)(C)c1sc2ncnc(Oc3c(F)cccc3F)c2c1-c1cccc(F)c1` [Compound 7aw, 6-tert-butyl-4-(2,6-difluorophenoxy)-5-(3-fluorophenyl)thieno[2,3-d]pyrimidine] are 180 °C and 7.00.
Regarding `CC(C)(C)c1sc2ncnc(Sc3ccccc3OC(F)(F)F)c2c1-c1ccc(Cl)c(Cl)c1` [Compound 7ax, 6-tert-butyl-5-(3,4-dichlorophenyl)-4-(2-(trifluoromethoxy)phenylthio)thieno[2,3-d]pyrimidine], the melting point was determined as 165 °C. Also, in data set [1], the pEC50 was 6.70.
On the same counts, the results for `Cc1nc(Oc2ccccc2)c2ccsc2n1` [Compound 7ay, 2-methyl-4-phenoxythieno[2,3-d]pyrimidine] are 100 °C and 5.22.
As to `CC(C)(C)c1sc2ncnc(Oc3c(F)cccc3OC(F)(F)F)c2c1N1CCCC1` [Compound 7bf, 6-(tert-butyl)-4-(2-fluoro-6-(trifluoromethoxy)phenoxy)-5-(pyrrolidin-1-yl)thieno[2,3-d]pyrimidine], the melting point was 115 °C. In addition, the pEC50 in data set [1] is 7.52.
Regarding `CC(C)(C)c1sc2ncnc(Oc3c(F)cccc3OC(F)(F)F)c2c1N1CCCCC1` [Compound 7bh, 6-(tert-butyl)-4-(2-fluoro-6-(trifluoromethoxy)phenoxy)-5-(piperidin-1-yl)thieno[2,3-d]pyrimidine], the melting point amounted to 133 °C. In addition, in data set [1], the pEC50 is 7.40.
The matching figures for `CC(C)(C)c1sc2ncnc(Oc3c(F)cccc3F)c2c1N1CCOCC1` [Compound 7bi, 4-(6-(tert-butyl)-4-(2,6-difluorophenoxy)thieno[2,3-d]pyrimidin-5-yl)morpholine]: 173 °C and 7.40.
The compound `CCN(CC)c1c(C(C)(C)C)sc2ncnc(Oc3c(F)cccc3OC(F)(F)F)c12` [Compound 7bj, 6-(tert-butyl)-N,N-diethyl-4-(2-fluoro-6-(trifluoromethoxy)phenoxy)thieno[2,3-d]pyrimidin-5-amine] had a melting point of 72 °C. Also, the pEC50 in data set [1] is 7.15.
For `CC(C)(C)c1oc2ncnc(Oc3c(F)cccc3OC(F)(F)F)c2c1C(=O)N1CCCCC1` [Compound 7bk, (6-(tert-butyl)-4-(2-fluoro-6-(trifluoromethoxy)phenoxy)furo[2,3-d]pyrimidin-5-yl)(piperidin-1-yl)methanone], the melting point fell in the range of 159 to 161 °C. Moreover, in data set [1], the pEC50 is 7.00.
Compound `CC(C)(C)c1sc2ncnc(Oc3c(Cl)cccc3OC(F)(F)F)c2c1-c1ccc(Cl)c(Cl)c1` [Compound 7c, 6-tert-butyl-4-(2-chloro-6-(trifluoromethoxy)phenoxy)-5-(3,4-dichlorophenyl)thieno[2,3-d]pyrimidine] gave a melting point of 66 °C. In data set [1], the pEC50 is 6.52.
Compound `CC(C)(C)c1sc2ncnc(Oc3cccc(OC(F)(F)F)c3)c2c1-c1ccc(Cl)c(Cl)c1` [Compound 7d, 6-tert-butyl-5-(3,4-dichlorophenyl)-4-(3-(trifluoromethoxy)phenoxy)thieno[2,3-d]pyrimidine] showed a melting point of 121 °C. Moreover, in data set [1], the pEC50 is below 5.00.
`CC(C)(C)c1sc2ncnc(Oc3ccc(OC(F)(F)F)cc3)c2c1-c1ccc(Cl)c(Cl)c1` [Compound 7e, 6-tert-butyl-5-(3,4-dichlorophenyl)-4-(4-(trifluoromethoxy)phenoxy)thieno[2,3-d]pyrimidine] registered a melting point of 103 °C. Moreover, the pEC50 in data set [1] was below 4.00.
`CC(C)(C)c1sc2ncnc(Oc3cccnc3F)c2c1-c1ccc(Cl)c(Cl)c1` [Compound 7g, 6-tert-butyl-5-(3,4-dichlorophenyl)-4-(2-fluoropyridin-3-yloxy)thieno[2,3-d]pyrimidine] yielded a melting point of 164 °C. Besides, the pEC50 in data set [1] was 6.00.
In turn, `CC(C)(C)c1sc2ncnc(Oc3cccnc3OC(F)(F)F)c2c1-c1ccc(Cl)c(Cl)c1` [Compound 7h, 6-tert-butyl-5-(3,4-dichlorophenyl)-4-(2-(trifluoromethoxy)pyridin-3-yloxy)thieno[2,3-d]pyrimidine] came in with a melting point of 117 °C. In addition, the pEC50 in data set [1] was 5.40.
In the case of `CC(C)(C)c1sc2ncnc(Oc3cccnc3N)c2c1-c1ccc(Cl)c(Cl)c1` [Compound 7j, 3-(6-tert-butyl-5-(3,4-dichlorophenyl)thieno[2,3-d]pyrimidin-4-yloxy)pyridin-2-amine], the melting point stood at 207 °C. The pEC50 in data set [1] is 4.52.
On the same counts, the results for `CC(C)(C)c1sc2ncnc(Oc3ccnnc3)c2c1-c1ccc(Cl)c(Cl)c1` [Compound 7k, 6-tert-butyl-5-(3,4-dichlorophenyl)-4-(pyridazin-4-yloxy)thieno[2,3-d]pyrimidine] are 186 °C and below 4.00.
Regarding `CC(C)(C)c1sc2ncnc(Oc3ccccc3)c2c1-c1ccc(Cl)c(Cl)c1` [Compound 7l, 6-tert-butyl-5-(3,4-dichlorophenyl)-4-phenoxythieno[2,3-d]pyrimidine], the melting point is 148 °C. The pEC50 in data set [1] was 6.22.
The matching figures for `CC(C)(C)c1sc2ncnc(Oc3ccccc3F)c2c1-c1ccc(Cl)c(Cl)c1` [Compound 7m, 6-tert-butyl-5-(3,4-dichlorophenyl)-4-(2-fluorophenoxy)thieno[2,3-d]pyrimidine]: 163 °C and 7.00.
The matching figures for `CC(C)(C)c1sc2ncnc(Oc3cccc(F)c3)c2c1-c1ccc(Cl)c(Cl)c1` [Compound 7o, 6-tert-butyl-5-(3,4-dichlorophenyl)-4-(3-fluorophenoxy)thieno[2,3-d]pyrimidine]: 144 °C and below 4.00.
On the same counts, the results for `CC(C)(C)c1sc2ncnc(Oc3ccc(F)cc3)c2c1-c1ccc(Cl)c(Cl)c1` [Compound 7p, 6-tert-butyl-5-(3,4-dichlorophenyl)-4-(4-fluorophenoxy)thieno[2,3-d]pyrimidine] are 179 °C and 5.70.
With `COc1ccccc1Oc1ncnc2sc(C(C)(C)C)c(-c3ccc(Cl)c(Cl)c3)c12` [Compound 7q, 6-tert-butyl-5-(3,4-dichlorophenyl)-4-(2-methoxyphenoxy)thieno[2,3-d]pyrimidine], the melting point came to 136 °C. Further, the pEC50 in data set [1] was 6.15.
For the compound `CCOc1ccccc1Oc1ncnc2sc(C(C)(C)C)c(-c3ccc(Cl)c(Cl)c3)c12` [Compound 7r, 6-tert-butyl-5-(3,4-dichlorophenyl)-4-(2-ethoxyphenoxy)thieno[2,3-d]pyrimidine], the melting point is 119 °C. The pEC50 in data set [1] is 6.00.
`CC(C)(C)c1sc2ncnc(Oc3ccccc3OCC(F)(F)F)c2c1-c1ccc(Cl)c(Cl)c1` [Compound 7s, 6-tert-butyl-5-(3,4-dichlorophenyl)-4-(2-(2,2,2-trifluoroethoxy)phenoxy)thieno[2,3-d]pyrimidine] showed a melting point of 136 °C. For the same compound, in data set [1], the pEC50 is 6.00.
Take `Cc1ccccc1Oc1ncnc2sc(C(C)(C)C)c(-c3ccc(Cl)c(Cl)c3)c12` [Compound 7t, 6-tert-butyl-5-(3,4-dichlorophenyl)-4-(o-tolyloxy)thieno[2,3-d]pyrimidine]: the melting point was 151 °C. Moreover, the pEC50 in data set [1] was 6.40.
The matching figures for `CC(=O)c1ccccc1Oc1ncnc2sc(C(C)(C)C)c(-c3ccc(Cl)c(Cl)c3)c12` [Compound 7u, 1-(2-(6-tert-butyl-5-(3,4-dichlorophenyl)thieno[2,3-d]pyrimidin-4-yloxy)phenyl)ethanone]: 60 °C and 5.52.
Compound `CC(C)Oc1ncnc2sc(C(C)(C)C)c(-c3ccc(Cl)c(Cl)c3)c12` [Compound 7w, 6-tert-butyl-5-(3,4-dichlorophenyl)-4-isopropoxythieno[2,3-d]pyrimidine] came in with a melting point of 165 °C. Also, in data set [1], the pEC50 is below 5.00.
